Source: US9505716B2, “Pyrrolidine triple reuptake inhibitors” (SUNOVION PHARMACEUTICALS INC., priority 2009, dated 2016)

What was measured:
[1] = target: T1, recombinant human norepinephrine transporter expressed in either HEK293 or MDCK cells (Homo sapiens, UniProt P23975); assay: Norepinephrine functional uptake assay for human reuptake transporter; assay type: cell-based; settings: functional uptake of norepinephrine
T1 construct: expressed in transfected cells; host or cells: HEK293 or MDCK
T1 sequence (P23975 whole entry): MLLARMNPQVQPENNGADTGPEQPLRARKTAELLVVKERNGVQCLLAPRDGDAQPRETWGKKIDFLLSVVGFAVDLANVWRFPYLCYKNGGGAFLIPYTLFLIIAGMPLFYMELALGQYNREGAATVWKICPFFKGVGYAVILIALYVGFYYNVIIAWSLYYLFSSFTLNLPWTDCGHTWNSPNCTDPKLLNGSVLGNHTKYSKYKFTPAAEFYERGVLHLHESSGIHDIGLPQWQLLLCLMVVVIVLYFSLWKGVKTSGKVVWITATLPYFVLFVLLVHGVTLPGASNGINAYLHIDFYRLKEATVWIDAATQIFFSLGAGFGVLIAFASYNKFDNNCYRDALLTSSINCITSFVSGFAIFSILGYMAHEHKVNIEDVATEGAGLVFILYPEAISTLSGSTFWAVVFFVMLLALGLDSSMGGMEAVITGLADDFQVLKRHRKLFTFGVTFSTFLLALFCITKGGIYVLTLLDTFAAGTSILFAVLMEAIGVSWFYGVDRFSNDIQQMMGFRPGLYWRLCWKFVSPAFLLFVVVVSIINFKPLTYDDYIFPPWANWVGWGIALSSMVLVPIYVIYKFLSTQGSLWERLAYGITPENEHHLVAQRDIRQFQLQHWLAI
Protocol: (§1) Compounds were initially tested at 10 μM in duplicate.
The cells were plated before the assay. Test compound and/or vehicle was preincubated with cells in modified HEPES buffer pH 7.1 or pH 7.4 for 20 minutes at 18 to 25° C. […] After the cells were washed to remove [^3H]norepinephrine not internalized, the cells were lysed, and the amount of tritium in the cell lysate was measured using a liquid scintillation counter to determine [^3H]norepinephrine uptake. Non-specific binding of tritium was measured in a control reaction containing […] (or […]), and was subtracted from the counts for assays to correct for non-specific binding of tritium. Reduction of [^3H]norepinephrine uptake by 50 percent or more (≧50%) relative to an uninhibited control reaction indicates significant inhibitory activity.

[2] = target: T2, recombinant human serotonin transporter expressed in HEK-293 cells (Homo sapiens, UniProt P31645); assay: Serotonin functional uptake assay for human reuptake transporter; assay type: cell-based; settings: functional uptake of serotonin; read-out: hSERT (IC50 nM)
T2 construct: expressed in transfected cells; host or cells: HEK-293
T2 sequence (P31645 whole entry): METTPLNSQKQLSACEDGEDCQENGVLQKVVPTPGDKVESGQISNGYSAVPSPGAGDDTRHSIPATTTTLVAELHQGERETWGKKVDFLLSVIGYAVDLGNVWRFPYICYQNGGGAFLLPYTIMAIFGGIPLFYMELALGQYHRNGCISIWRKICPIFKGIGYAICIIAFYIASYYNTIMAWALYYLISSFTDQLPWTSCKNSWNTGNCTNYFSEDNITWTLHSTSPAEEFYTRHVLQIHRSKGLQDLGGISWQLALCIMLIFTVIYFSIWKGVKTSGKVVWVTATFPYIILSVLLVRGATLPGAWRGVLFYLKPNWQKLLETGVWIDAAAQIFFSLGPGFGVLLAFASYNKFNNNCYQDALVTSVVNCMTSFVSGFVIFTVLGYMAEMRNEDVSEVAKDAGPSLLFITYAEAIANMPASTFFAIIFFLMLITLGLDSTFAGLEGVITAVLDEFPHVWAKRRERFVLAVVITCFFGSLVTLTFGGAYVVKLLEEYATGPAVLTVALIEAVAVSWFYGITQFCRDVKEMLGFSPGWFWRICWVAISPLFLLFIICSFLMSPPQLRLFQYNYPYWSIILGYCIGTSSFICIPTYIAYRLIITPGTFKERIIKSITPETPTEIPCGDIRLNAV
Protocol: as §1
HEK-293 cells expressing human serotonin transporter were plated before the assay. […] Cells with internalized [^3H]serotonin were washed and the amount of tritium taken into cells is counted using a liquid scintillation counter to determine [^3H]serotonin uptake. Non-specific binding of tritium was measured in a control reaction containing […], and was subtracted from the counts for assays to correct for non-specific binding of tritium. Reduction of [^3H]serotonin uptake by 50 percent or more (≧50%) relative to an uninhibited control reaction indicates significant inhibitory activity.

[3] = target: T3, recombinant human dopamine transporter expressed in either CHO-K1 or HEK293 cells (Homo sapiens, UniProt Q01959); assay: Dopamine functional uptake assay for human reuptake transporter; assay type: cell-based; settings: functional uptake of dopamine
T3 construct: expressed in transfected cells; host or cells: CHO-K1 or HEK293
T3 sequence (Q01959 whole entry): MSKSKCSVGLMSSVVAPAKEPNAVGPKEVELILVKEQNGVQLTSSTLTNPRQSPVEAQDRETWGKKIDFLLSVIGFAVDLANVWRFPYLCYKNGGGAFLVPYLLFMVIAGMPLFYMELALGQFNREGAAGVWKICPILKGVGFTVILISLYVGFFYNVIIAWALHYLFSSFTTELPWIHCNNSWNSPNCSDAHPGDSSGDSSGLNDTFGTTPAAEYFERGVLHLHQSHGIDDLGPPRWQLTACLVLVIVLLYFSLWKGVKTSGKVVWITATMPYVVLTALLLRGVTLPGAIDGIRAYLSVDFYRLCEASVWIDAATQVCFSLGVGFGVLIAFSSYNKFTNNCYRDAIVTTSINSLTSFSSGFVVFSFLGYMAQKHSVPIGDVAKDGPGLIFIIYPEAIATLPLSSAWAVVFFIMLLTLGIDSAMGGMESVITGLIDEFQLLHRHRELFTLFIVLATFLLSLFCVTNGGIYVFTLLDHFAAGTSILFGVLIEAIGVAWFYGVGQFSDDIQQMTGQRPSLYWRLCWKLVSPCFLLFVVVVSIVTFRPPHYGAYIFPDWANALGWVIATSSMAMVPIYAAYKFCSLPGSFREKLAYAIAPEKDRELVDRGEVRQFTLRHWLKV
Protocol: as §1
Either CHO-K1 or HEK293 cells expressing human recombinant dopamine transporter were plated before the assay. Test compound and/or vehicle was preincubated with cells in modified HEPES buffer pH 7.1 or pH 7.4 for 20 minutes at 18 to 25° C. and 50 nM [^3H]dopamine was then added for an additional timed incubation period (10 to 30 minutes). After washing the cells to remove [^3H]dopamine not internalized, the cells were lysed, and the amount of tritium in the lysate was measured using a liquid scintillation counter to determine [^3H]dopamine uptake. Non-specific binding of tritium was measured in a control reaction containing 10 μM nomifensine, and was subtracted from the counts for assays to correct for non-specific binding of tritium. Reduction of [^3H]dopamine uptake by 50 percent or more (≧50%) relative to an uninhibited control reaction indicates significant inhibitory activity.

serotonin uptake sites = serotonin uptake sites (Homo sapiens, UniProt P31645); settings: compared with the racemic compound; cited from earlier work
Sequence of serotonin uptake sites (P31645 whole entry): as the sequence (P31645 whole entry) above

[4] = in vivo; cited from earlier work

## Clc1ccc(C2(C3CCNC3)CCCCC2)cc1Cl (single isomer, unassigned) [Compound 1]
[1]
  hNET (IC50 nM): +++ (IC50 < 10 nM)
[2]
  IC50: < 1 nM
[3]
  hDAT (IC50 nM): ++ (IC50 ≦ 100 nM)

## Clc1ccc(C2(C3CCNC3)CCCCC2)cc1Cl (single isomer, unassigned) [Compound 2]
[1]
  hNET (IC50 nM): ++ (IC50 ≦ 100 nM)
[2]
  IC50: < 100 nM
[3]
  hDAT (IC50 nM): ++ (IC50 ≦ 100 nM)

## Clc1ccc(C2(C3CCNC3)CCCC2)cc1Cl (single isomer, unassigned) [Compound 5]
[1]
  hNET (IC50 nM): ++ (IC50 ≦ 100 nM)
[2]
  IC50: < 100 nM
[3]
  hDAT (IC50 nM): ++ (IC50 ≦ 100 nM)

## Clc1ccc(C2(C3CCNC3)CCCC2)cc1Cl (single isomer, unassigned) [Compound 6]
[1]
  hNET (IC50 nM): ++ (IC50 ≦ 100 nM)
[2]
  IC50: < 10 nM
[3]
  hDAT (IC50 nM): ++ (IC50 ≦ 100 nM)

## Clc1ccc(C2(C3CCNC3)CCC2)cc1Cl (single isomer, unassigned) [Compound 7]
[1]
  hNET (IC50 nM): ++ (IC50 ≦ 100 nM)
[2]
  IC50: < 100 nM
[3]
  hDAT (IC50 nM): +++ (IC50 < 10 nM)

## Clc1ccc(C2(C3CCNC3)CCC2)cc1Cl (single isomer, unassigned) [Compound 8]
[1]
  hNET (IC50 nM): ++ (IC50 ≦ 100 nM)
[2]
  IC50: < 100 nM
[3]
  hDAT (IC50 nM): ++ (IC50 ≦ 100 nM)

## c1ccc2cc(C3(C4CCNC4)CCCCC3)ccc2c1 (single isomer, unassigned) [Compound 9]
[1]
  hNET (IC50 nM): + (100 nM < IC50 ≦ 500 nM)
[2]
  IC50: < 10 nM
[3]
  hDAT (IC50 nM): ++ (IC50 ≦ 100 nM)

## c1ccc2cc(C3(C4CCNC4)CCCCC3)ccc2c1 (single isomer, unassigned) [Compound 10]
[1]
  hNET (IC50 nM): ++ (IC50 ≦ 100 nM)
[2]
  IC50: < 1 nM
[3]
  hDAT (IC50 nM): ++ (IC50 ≦ 100 nM)

## c1ccc2cc(C3(C4CCNC4)CCCC3)ccc2c1 (single isomer, unassigned) [Compound 11]
[1]
  hNET (IC50 nM): +++ (IC50 < 10 nM)
[2]
  IC50: < 1 nM
[3]
  hDAT (IC50 nM): +++ (IC50 < 10 nM)

## c1ccc2cc(C3(C4CCNC4)CCCC3)ccc2c1 (single isomer, unassigned) [Compound 12]
[1]
  hNET (IC50 nM): ++++ (IC50 < 1 nM)
[2]
  IC50: < 1 nM
[3]
  hDAT (IC50 nM): ++ (IC50 ≦ 100 nM)

## c1ccc2cc(C3(C4CCNC4)CCC3)ccc2c1 (single isomer, unassigned) [Compound 13]
[1]
  hNET (IC50 nM): ++ (IC50 ≦ 100 nM)
[2]
  IC50: < 100 nM
[3]
  hDAT (IC50 nM): ++ (IC50 ≦ 100 nM)

## c1ccc2cc(C3(C4CCNC4)CCC3)ccc2c1 (single isomer, unassigned) [Compound 14]
[1]
  hNET (IC50 nM): ++ (IC50 ≦ 100 nM)
[2]
  IC50: < 10 nM
[3]
  hDAT (IC50 nM): ++ (IC50 ≦ 100 nM)

## Clc1ccc([C@@]23CNC[C@@H]2C3)cc1Cl (single isomer, unassigned) [DOV 21,947, (+)-1-(3,4-dichlorophenyl)-3-azabicyclo[3.1.0]hexane]
Serotonin uptake sites
  affinity for the serotonin uptake sites: significantly greater affinity
[4]
  immobility in the tail suspension test: dose-dependent reduction in immobility

## CN1CCC(C2(c3ccc(Cl)c(Cl)c3)CCCCC2)C1 (centres unmarked) [Compound 3]
[1]
  hNET (IC50 nM): + (100 nM < IC50 ≦ 500 nM)
[2]
  IC50: 100 to 500 nM
[3]
  hDAT (IC50 nM): ++ (IC50 ≦ 100 nM)

## CN1CCC(C2(c3ccc(Cl)c(Cl)c3)CCCCC2)C1 (centres unmarked) [Compound 4]
[1]
  hNET (IC50 nM): − (IC50 > 500 nM)
[2]
  IC50: > 500 nM
[3]
  hDAT (IC50 nM): +++ (IC50 < 10 nM)

## Clc1ccc(C2(C3CCNC3)CCOCC2)cc1Cl (centres unmarked) [Compound 15]
[1]
  hNET (IC50 nM): ++ (IC50 ≦ 100 nM)
[2]
  IC50: < 100 nM
[3]
  hDAT (IC50 nM): ++ (IC50 ≦ 100 nM)

## Clc1ccc(C2(C3CCNC3)CCOCC2)cc1Cl (centres unmarked) [Compound 16]
[1]
  hNET (IC50 nM): +++ (IC50 < 10 nM)
[2]
  IC50: < 10 nM
[3]
  hDAT (IC50 nM): +++ (IC50 < 10 nM)

## C[C@]1(O)CC[C@@](c2ccc(Cl)c(Cl)c2)([C@H]2CCNC2)CC1 [Compound 17]
[1]
  hNET (IC50 nM): +++ (IC50 < 10 nM)
[2]
  IC50: < 10 nM
[3]
  hDAT (IC50 nM): ++ (IC50 ≦ 100 nM)

## C[C@]1(O)CC[C@@](c2ccc(Cl)c(Cl)c2)([C@@H]2CCNC2)CC1 [Compound 18]
[1]
  hNET (IC50 nM): +++ (IC50 < 10 nM)
[2]
  IC50: < 10 nM
[3]
  hDAT (IC50 nM): ++ (IC50 ≦ 100 nM)

## C[C@]1(O)CC[C@](c2ccc(Cl)c(Cl)c2)([C@@H]2CCNC2)CC1 [Compound 19]
[1]
  hNET (IC50 nM): ++ (IC50 ≦ 100 nM)
[2]
  IC50: < 10 nM
[3]
  hDAT (IC50 nM): +++ (IC50 < 10 nM)

## C[C@]1(O)CC[C@](c2ccc(Cl)c(Cl)c2)([C@H]2CCNC2)CC1 [Compound 20]
[1]
  hNET (IC50 nM): ++ (IC50 ≦ 100 nM)
[2]
  IC50: < 10 nM
[3]
  hDAT (IC50 nM): +++ (IC50 < 10 nM)

## O[C@H]1CC[C@@](c2ccc(Cl)c(Cl)c2)([C@H]2CCNC2)CC1 [Compound 21]
[1]
  hNET (IC50 nM): +++ (IC50 < 10 nM)
[2]
  IC50: < 10 nM
[3]
  hDAT (IC50 nM): ++ (IC50 ≦ 100 nM)

## O[C@H]1CC[C@@](c2ccc(Cl)c(Cl)c2)([C@@H]2CCNC2)CC1 [Compound 22]
[1]
  hNET (IC50 nM): +++ (IC50 < 10 nM)
[2]
  IC50: < 10 nM
[3]
  hDAT (IC50 nM): +++ (IC50 < 10 nM)

## O[C@H]1CC[C@](c2ccc(Cl)c(Cl)c2)([C@H]2CCNC2)CC1 [Compound 23]
[1]
  hNET (IC50 nM): +++ (IC50 < 10 nM)
[2]
  IC50: < 10 nM
[3]
  hDAT (IC50 nM): +++ (IC50 < 10 nM)

## O[C@H]1CC[C@](c2ccc(Cl)c(Cl)c2)([C@@H]2CCNC2)CC1 [Compound 24]
[1]
  hNET (IC50 nM): ++++ (IC50 < 1 nM)
[2]
  IC50: < 1 nM
[3]
  hDAT (IC50 nM): +++ (IC50 < 10 nM)

## CO[C@]1(C)CC[C@](c2ccc(Cl)c(Cl)c2)([C@H]2CCNC2)CC1 [Compound 25]
[1]
  hNET (IC50 nM): ++ (IC50 ≦ 100 nM)
[2]
  IC50: < 10 nM
[3]
  hDAT (IC50 nM): +++ (IC50 < 10 nM)

## CO[C@]1(C)CC[C@](c2ccc(Cl)c(Cl)c2)([C@@H]2CCNC2)CC1 [Compound 26]
[1]
  hNET (IC50 nM): +++ (IC50 < 10 nM)
[2]
  IC50: < 100 nM
[3]
  hDAT (IC50 nM): +++ (IC50 < 10 nM)

## CO[C@]1(C)CC[C@@](c2ccc(Cl)c(Cl)c2)([C@@H]2CCNC2)CC1 [Compound 27]
[1]
  hNET (IC50 nM): +++ (IC50 < 10 nM)
[2]
  IC50: < 10 nM
[3]
  hDAT (IC50 nM): ++ (IC50 ≦ 100 nM)

## CO[C@]1(C)CC[C@@](c2ccc(Cl)c(Cl)c2)([C@H]2CCNC2)CC1 [Compound 28]
[1]
  hNET (IC50 nM): +++ (IC50 < 10 nM)
[2]
  IC50: < 100 nM
[3]
  hDAT (IC50 nM): ++ (IC50 ≦ 100 nM)

## O[C@@]1(C2(c3ccc(Cl)c(Cl)c3)CCCC2)CCNC1 [Compound 29]
[1]
  hNET (IC50 nM): +++ (IC50 < 10 nM)
[2]
  IC50: < 10 nM
[3]
  hDAT (IC50 nM): ++ (IC50 ≦ 100 nM)

## O[C@]1(C2(c3ccc(Cl)c(Cl)c3)CCCC2)CCNC1 [Compound 30]
[1]
  hNET (IC50 nM): ++ (IC50 ≦ 100 nM)
[2]
  IC50: < 100 nM
[3]
  hDAT (IC50 nM): ++ (IC50 ≦ 100 nM)
